Test results reported in PubChem BioAssay (NCI).
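The compound was tested at five concentrations on cells cultured in 96-well plates, with a 48-hour exposure period. GI50 = concentration required for 50% inhibition of growth. TGI denotes the concentration required for complete inhibition of growth.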

How the values were obtained:
Assay in all cases: NCI anticancer screen, dose series, 48 h
M14 melanoma = system: M14 melanoma
A549 NSCLC = system: A549 NSCLC
CAKI-1 renal = system: CAKI-1 renal
DU-145 prostate = system: DU-145 prostate
SK-MEL-2 melanoma = system: SK-MEL-2 melanoma
U251 CNS = system: U251 CNS
NCI/ADR-RES ovarian = system: NCI/ADR-RES ovarian
NCI-H23 lung = system: NCI-H23 lung
SW-620 colon = system: SW-620 colon
OVCAR-8 ovarian = system: OVCAR-8 ovarian
SF-539 CNS = system: SF-539 CNS
HOP-92 NSCLC = system: HOP-92 NSCLC
TK-10 renal = system: TK-10 renal
SK-MEL-28 melanoma = system: SK-MEL-28 melanoma
UACC-257 melanoma = system: UACC-257 melanoma
K-562 leukemia = system: K-562 leukemia
HCT-116 colon = system: HCT-116 colon
KM12 colon = system: KM12 colon
MDA-MB-435 = system: MDA-MB-435
COLO 205 colon = system: COLO 205 colon
HCC-2998 colon = system: HCC-2998 colon
IGROV1 ovarian = system: IGROV1 ovarian
HOP-62 NSCLC = system: HOP-62 NSCLC
ACHN renal = system: ACHN renal
786-0 renal = system: 786-0 renal
NCI-H226 lung = system: NCI-H226 lung
MALME-3M melanoma = system: MALME-3M melanoma
SNB-19 CNS = system: SNB-19 CNS
OVCAR-4 ovarian = system: OVCAR-4 ovarian
PC-3 prostate = system: PC-3 prostate
CCRF-CEM leukemia = system: CCRF-CEM leukemia
HL-60(TB) leukemia = system: HL-60(TB) leukemia
HCT-15 colon = system: HCT-15 colon
NCI-H460 lung = system: NCI-H460 lung
SF-295 CNS = system: SF-295 CNS
OVCAR-5 ovarian = system: OVCAR-5 ovarian
T-47D breast = system: T-47D breast
HT29 colon = system: HT29 colon
MCF7 breast = system: MCF7 breast
SF-268 CNS = system: SF-268 CNS
SN12C renal = system: SN12C renal
MOLT-4 leukemia = system: MOLT-4 leukemia
A498 renal = system: A498 renal
LOX IMVI melanoma = system: LOX IMVI melanoma
NCI-H522 lung = system: NCI-H522 lung
UO-31 renal = system: UO-31 renal
OVCAR-3 ovarian = system: OVCAR-3 ovarian
RPMI-8226 leukemia = system: RPMI-8226 leukemia
SK-MEL-5 melanoma = system: SK-MEL-5 melanoma
UACC-62 melanoma = system: UACC-62 melanoma
SNB-75 CNS = system: SNB-75 CNS
BT-549 breast = system: BT-549 breast
HS 578T breast = system: HS 578T breast
RXF 393 renal = system: RXF 393 renal
SK-OV-3 ovarian = system: SK-OV-3 ovarian
MDA-MB-231 breast = system: MDA-MB-231 breast
EKVX NSCLC = system: EKVX NSCLC
SR leukemia = system: SR leukemia

In the case of `S=C1SCN(Cc2ccccc2)CN1Cc1ccccc1`, the GI50 (M14 melanoma) is reported as 6.5 µM, the TGI (M14 melanoma) is reported as 27.8 µM and the GI50 (A549 NSCLC) is reported as 15.4 µM. It also gave a TGI (A549 NSCLC) of 37.6 µM, a GI50 (CAKI-1 renal) of 7.19 µM and a TGI (CAKI-1 renal) of 20.9 µM. For the same compound, the GI50 (DU-145 prostate) was 2.69 µM, the TGI (DU-145 prostate) was 9.18 µM and the GI50 (SK-MEL-2 melanoma) was 7.53 µM. For the same compound, the TGI (SK-MEL-2 melanoma) was 25.3 µM, the GI50 (U251 CNS) was 5.61 µM and the TGI (U251 CNS) was 16.4 µM. It also gave a GI50 (NCI/ADR-RES ovarian) of 33.1 µM, a TGI (NCI/ADR-RES ovarian) greater than 100 µM and a GI50 (NCI-H23 lung) of 12.1 µM. It also gave a TGI (NCI-H23 lung) of 42.9 µM, a GI50 (SW-620 colon) of 3.02 µM and a TGI (SW-620 colon) of 11.8 µM. For the same compound, the GI50 (OVCAR-8 ovarian) was 21.6 µM, the TGI (OVCAR-8 ovarian) was 90 µM and the GI50 (SF-539 CNS) was 17.2 µM. The TGI (SF-539 CNS) was greater than 61.3 µM, the GI50 (HOP-92 NSCLC) was 2.37 µM and the TGI (HOP-92 NSCLC) was 13.8 µM. The GI50 (TK-10 renal) was 3.68 µM, the TGI (TK-10 renal) was 12.6 µM and the GI50 (SK-MEL-28 melanoma) was 5.27 µM. The TGI (SK-MEL-28 melanoma) was 17.9 µM, the GI50 (UACC-257 melanoma) was 16 µM and the TGI (UACC-257 melanoma) was 33.2 µM. The GI50 (K-562 leukemia) was 1.15 µM, the TGI (K-562 leukemia) was 9 µM and the GI50 (HCT-116 colon) was 3.05 µM. It also gave a TGI (HCT-116 colon) of 13 µM, a GI50 (KM12 colon) of 2.1 µM and a TGI (KM12 colon) of 6.84 µM. The GI50 (MDA-MB-435) was 2.35 µM, the TGI (MDA-MB-435) was 7.16 µM and the GI50 (COLO 205 colon) was 3.21 µM. The TGI (COLO 205 colon) was 11.6 µM, the GI50 (HCC-2998 colon) was 21.7 µM and the TGI (HCC-2998 colon) was 37.8 µM. The GI50 (IGROV1 ovarian) was 4.39 µM, the TGI (IGROV1 ovarian) was 12.2 µM and the GI50 (HOP-62 NSCLC) was 55.6 µM. The TGI (HOP-62 NSCLC) was greater than 100 µM, the GI50 (ACHN renal) was 14.8 µM and the TGI (ACHN renal) was 28.2 µM. The GI50 (786-0 renal) was 7.63 µM, the TGI (786-0 renal) was 23.1 µM and the GI50 (NCI-H226 lung) was greater than 32.6 µM. It also gave a TGI (NCI-H226 lung) greater than 50.8 µM, a GI50 (MALME-3M melanoma) of 8.75 µM and a TGI (MALME-3M melanoma) of 26.7 µM. The GI50 (SNB-19 CNS) was greater than 54.7 µM, the TGI (SNB-19 CNS) was greater than 100 µM and the GI50 (OVCAR-4 ovarian) was 9.43 µM. The TGI (OVCAR-4 ovarian) was 27.6 µM, the GI50 (PC-3 prostate) was 3.36 µM and the TGI (PC-3 prostate) was 15.6 µM. The GI50 (CCRF-CEM leukemia) was 1.15 µM, the TGI (CCRF-CEM leukemia) was 3.56 µM and the GI50 (HL-60(TB) leukemia) was 1.17 µM. The TGI (HL-60(TB) leukemia) was 3.83 µM, the GI50 (HCT-15 colon) was 4.13 µM and the TGI (HCT-15 colon) was 17.1 µM. The GI50 (NCI-H460 lung) was 31 µM, the TGI (NCI-H460 lung) was greater than 100 µM and the GI50 (SF-295 CNS) was 24.4 µM. For the same compound, the TGI (SF-295 CNS) was greater than 90 µM, the GI50 (OVCAR-5 ovarian) was 25.7 µM and the TGI (OVCAR-5 ovarian) was greater than 60.5 µM. For the same compound, the GI50 (T-47D breast) was 3.51 µM, the TGI (T-47D breast) was 21.1 µM and the GI50 (HT29 colon) was 3.89 µM. For the same compound, the TGI (HT29 colon) was 15.1 µM, the GI50 (MCF7 breast) was 2.19 µM and the TGI (MCF7 breast) was 15.1 µM. For the same compound, the GI50 (SF-268 CNS) was 9.55 µM, the TGI (SF-268 CNS) was greater than 37.6 µM and the GI50 (SN12C renal) was 5.01 µM. For the same compound, the TGI (SN12C renal) was 18.5 µM, the GI50 (MOLT-4 leukemia) was 1.44 µM and the TGI (MOLT-4 leukemia) was 5.14 µM. For the same compound, the GI50 (A498 renal) was 15.5 µM, the TGI (A498 renal) was 43.6 µM and the GI50 (LOX IMVI melanoma) was 3 µM. The TGI (LOX IMVI melanoma) was 15 µM, the GI50 (NCI-H522 lung) was 3.83 µM and the TGI (NCI-H522 lung) was 10 µM. The GI50 (UO-31 renal) was 5.43 µM, the TGI (UO-31 renal) was 19 µM and the GI50 (OVCAR-3 ovarian) was 2.49 µM. The TGI (OVCAR-3 ovarian) was 9.09 µM, the GI50 (RPMI-8226 leukemia) was 0.119 µM and the TGI (RPMI-8226 leukemia) was 0.415 µM. The GI50 (SK-MEL-5 melanoma) was 13.6 µM, the TGI (SK-MEL-5 melanoma) was 28.1 µM and the GI50 (UACC-62 melanoma) was 5.05 µM. The TGI (UACC-62 melanoma) was 16.9 µM, the GI50 (SNB-75 CNS) was 15.4 µM and the TGI (SNB-75 CNS) was greater than 48.1 µM. It also gave a GI50 (BT-549 breast) of 6.51 µM, a TGI (BT-549 breast) of 33.4 µM and a GI50 (HS 578T breast) of 3.02 µM. The TGI (HS 578T breast) was 25.6 µM, the GI50 (RXF 393 renal) was 1.55 µM and the TGI (RXF 393 renal) was 6.32 µM. It also gave a GI50 (SK-OV-3 ovarian) of 98.7 µM, a TGI (SK-OV-3 ovarian) greater than 100 µM and a GI50 (MDA-MB-231 breast) of 3.04 µM. The TGI (MDA-MB-231 breast) was 10.1 µM, the GI50 (EKVX NSCLC) was 21.2 µM and the TGI (EKVX NSCLC) was greater than 57.8 µM. It also gave a GI50 (SR leukemia) of 0.303 µM and a TGI (SR leukemia) of 3.02 µM.
